Experimental data taken from US20220265629A1, “TREATMENT OF SYSTOLIC DYSFUNCTION AND HEART FAILURE WITH REDUCED EJECTION FRACTION WITH THE COMPOUND (R)-4-(1-((3-(DIFLUOROMETHYL)-1-METHYL-1H-PYRAZOL-4-YL)SULFONYL)-1-FLUOROETHYL)-N-(ISOXAZOL-3-YL)PIPERIDINE-1-CARBOXAMIDE” (MyoKardia, Inc., priority 2019, published 2022).
Where two headings read alike, the source gives them in different places.

Experiments:
[1] = Pharmacokinetics in beagle dogs (single doses); assay type: in vivo
Protocol: The pharmacokinetics of Compound I have been evaluated in multiple dog studies. […] At a single dose<3 mg/kg, the observed oral bioavailability was approximately 100%. This nonlinear pharmacokinetics of Compound I was also observed in humans. […] In order to delineate the underlying mechanism responsible for the nonlinear pharmacokinetics, physiologically-based absorption models of Compound I for beagle dogs and healthy volunteers were developed and used to assess the effect of particle size on the in vivo dissolution, absorption, bioavailability, and systemic exposure of Compound I.
Data used for Compound I physiologically-based pharmacokinetic (PBPK) model development and verification were obtained from in vivo nonclinical studies in dogs (FIG. 13), a clinical study in healthy volunteers (Example 1), and in vitro experiments (Table 20).

[2] = system: healthy subjects; assay: Single ascending oral dose study in healthy volunteers: transthoracic echocardiography (TTE) pharmacodynamics; assay type: in vivo, human
Protocol: To assess pharmacodynamic effects, serial echocardiograms were performed. The sonographers used in the study completed Echo protocol training and submitted an example of a study for evaluation to the core laboratory for evaluation. The core TTE lab certified that the sonographer was able to perform the TTEs at a level satisfactory for obtaining the required protocol data.
These criteria were chosen to prevent subjects from having prolongation of SET that might lead to myocardial ischemia. Dose escalation stopping criteria also included observation of a Baseline-corrected, group mean relative increase of >20% in any 2 sequential TTE assessments in at least 2 measures of LV contractility: LVOT-VTI, LVFS, LVEF, or LVSV in subjects receiving Compound I. Placebo-controlled evaluation may have been considered. For this comparison, subjects who received placebo may have been pooled across cohorts.
SET as determined by TTE was assessed using summary statistics. Observations and change from Baseline were summarized by treatment at each time point and the maximum change from Baseline determined for each subject. In addition, categorical analyses were performed on the number of subjects with a change from Baseline>50 msec and the number of subjects with a change from Baseline>75 msec in 1 or any 2 sequential TTE assessments. The relationship to Compound I plasma concentration to SET was explored. An analysis of SET placebo-adjusted change from Baseline was also performed.
As the Cmax occurred at between 4 and 6 hours in most of the subjects, the TTE obtained at 6 hours postclose was considered the best timepoint to explore the relationship between concentration and pharmacological effect. TTEs obtained at 1.5 and 3 hours after dosing were before the Cmax and at 9 hours were after the peak Cmax. Based on the preclinical data, it was considered unlikely that there would be a prolonged lag between the Cmax and peak pharmacological effect. As the exposure after the administration of the 350 mg and 525 mg doses were very similar, it was decided to not only present the results from these groups separately, but also to combine the data from these groups. By combining the data from the 2 groups, the number of subjects closed was increased from 6 to 12, thus increasing the power to observe a statistically significant change from Baseline in the TTE parameters of interest.
An analysis of placebo-corrected change from Baseline at 6 hours postclose by Compound I plasma concentration bins is presented in Table 6 below.

[3] = 350 mg and 525 mg combined, 6 hours postdose
[4] = 350 mg and 525 mg combined, 12 hours postdose
[5] = 6 hours post-dose, plasma 0-1000 ng/mL
[6] = 6 hours post-dose, plasma 1001-2000 ng/mL

## Cn1cc(S(=O)(=O)[C@@](C)(F)C2CCN(C(=O)Nc3ccon3)CC2)c(C(F)F)n1 [Compound I, (R)-4-(1-((3-(difluoromethyl)-1-methyl-1H-pyrazol-4-yl)sulfonyl)-1-fluoroethyl)-N-(isoxazol-3-yl)piperidine-1-carboxamide]
[1]; beagle, dog, plasma, po, single dose <3 mg/kg, read-out: oral bioavailability
  bioavailability: ~100%
[1]; beagle, dog, plasma, oral 10 mg/kg, micronized (Dv50=3.2 μm), read-out: bioavailability
  bioavailability: > 100%
[1]; beagle, dog, plasma, oral 100 mg, Dv50=46 μm, read-out: bioavailability
  bioavailability: ~40%
[1]; beagle, plasma, 1-compartmental model analysis of in vivo data in dog
  Vd: 1.51 L/kg
[1]; beagle, plasma, 1-compartmental model analysis of in vivo data in dog, read-out: CL (Dog) (converted)
  clearance: 1.58 mL/min/kg
[1]; single oral dose 25 mg (3 mg/kg) or lower, regardless of particle size
  bioavailability: approximately 100%
[2]; 50 mg, 24 hours postdose
  LVEDD, highest observed change from Baseline: 0.103 (0.217) cm
[2]; 100 mg, 12 hours postdose
  LVEF, maximum mean (SD) increase: 4.83 (2.65) %
[2]; 350 mg and 525 mg combined, 1.5 to 2 hours postdose
  SET, observed mean (SD) increase: 18.0 (19.5) msec
[2]; [3]
  LVEDV, mean (SD) decrease: −9.98 (7.83) mL
  LVESV, mean (SD) decrease: −6.82 (5.99) mL
  LVOT-VTI, mean (SD) increase: 2.28 (1.43) cm
[2]; [4]
  LVEDD, mean (SD) decrease: −0.171 (0.177) cm
  LVSV, mean (SD) increase: 7.623 (7.842) mL
[2]; 350 mg, 1.5 to 2 hours postdose
  SET, largest observed mean (SD) increase: 19.2 (20.5) msec
[2]; 350 mg, 6 hours postdose
  LVOT-VTI, maximum change from Baseline: 2.54 (1.78) cm
[2]; 350 mg, 12 hours postdose
  LVSV, maximum mean (SD) increase: 10.848 (9.893) mL
[2]; 525 mg, 6 hours postdose
  LVEDV, largest mean (SD) decrease: −12.5 (6.96) mL
  LVEF, maximum mean (SD) increase: 4.65 (1.45) %
  LVESV, largest mean (SD) decrease: −9.21 (3.18) mL
[2]; 525 mg, 12 hours postdose
  LVEDD, largest observed mean (SD) decrease: −0.213 (0.221) cm
  LVESD, largest observed mean (SD) decrease: −0.455 (0.357) cm
[2]; [5]
  DBP placebo-corrected change from Baseline (LS mean difference): 2.277 mm Hg
  E/A ratio placebo-corrected change from Baseline (LS mean difference): 0.150
  E/e′(lateral) placebo-corrected change from Baseline (LS mean difference): −0.235
  HR placebo-corrected change from Baseline (LS mean difference): −1.070 bpm
  IVCT placebo-corrected change from Baseline (LS mean difference): 0.677 ms
  IVRT placebo-corrected change from Baseline (LS mean difference): 1.526 ms
  LVEDD placebo-corrected change from Baseline (LS mean difference): −0.014 cm
  LVEDV placebo-corrected change from Baseline (LS mean difference): -2.210 mL
  LVEF placebo-corrected change from Baseline (LS mean difference): 0.322%
  LVESD placebo-corrected change from Baseline (LS mean difference): 0.025 cm
  LVESV placebo-corrected change from Baseline (LS mean difference): -1.204 mL
  LVFS placebo-corrected change from Baseline (LS mean difference): −0.560%
  LVGCS placebo-corrected change from Baseline (LS mean difference): −1.076%
  LVGLS placebo-corrected change from Baseline (LS mean difference): −0.467%
  MPI placebo-corrected change from Baseline (LS mean difference): −0.007
  PEP placebo-corrected change from Baseline (LS mean difference): -2.190 ms
  Peak A placebo-corrected change from Baseline (LS mean difference): -3.09 cm/s
  Peak E placebo-corrected change from Baseline (LS mean difference): -966000 ×10⁻⁶ cm/s
  SBP placebo-corrected change from Baseline (LS mean difference): −0.623 mm Hg
  SET placebo-corrected change from Baseline (LS mean difference): 10.623 ms
  Stroke Volume placebo-corrected change from Baseline (LS mean difference): 2.631 mL
[2]; [6]
  DBP placebo-corrected change from Baseline (LS mean difference): 2.937 mm Hg
  E/A ratio placebo-corrected change from Baseline (LS mean difference): 0.177
  E/e′(lateral) placebo-corrected change from Baseline (LS mean difference): 0.144
  HR placebo-corrected change from Baseline (LS mean difference): 0.336 bpm
  IVCT placebo-corrected change from Baseline (LS mean difference): 1.412 ms
  IVRT placebo-corrected change from Baseline (LS mean difference): 0.148 ms
  LVEDD placebo-corrected change from Baseline (LS mean difference): −0.041 cm
  LVEDV placebo-corrected change from Baseline (LS mean difference): -6.100 mL
  LVEF placebo-corrected change from Baseline (LS mean difference): 2.176%
  LVESD placebo-corrected change from Baseline (LS mean difference): −0.159 cm
